Measurements reported in US11173145B2, “Compounds useful as inhibitors of indoleamine 2,3-dioxygenase and/or tryptophan dioxygenase” (Board of Regents, The University of Texas System, priority 2017, dated 2021).

Target: T1, IDO1 (Homo sapiens, UniProt P14902)
T1 construct: endogenous in cells; host or cells: HeLa cells (ATCC), IFNgamma-induced
Assay: IDO1 cell-based assay (HeLa cells, IFNgamma-induced, N-formylkynurenine/L-tryptophan by RFMS)
Settings: 10 ng/mL IFNgamma, 24 hours
Procedure, shortened: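 N-formylkynurenine and tryptophan peak areas in media measured by RFMS (C18, isocratic, d-Trp standard), giving IC50 values by regression. Source: HeLa cells incubated 24 h with IFNgamma (10 ng/mL) plus test compound at 0.5% DMSO; parallel CellTiter-Glo viability read.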

T1 sequence (P14902 whole entry): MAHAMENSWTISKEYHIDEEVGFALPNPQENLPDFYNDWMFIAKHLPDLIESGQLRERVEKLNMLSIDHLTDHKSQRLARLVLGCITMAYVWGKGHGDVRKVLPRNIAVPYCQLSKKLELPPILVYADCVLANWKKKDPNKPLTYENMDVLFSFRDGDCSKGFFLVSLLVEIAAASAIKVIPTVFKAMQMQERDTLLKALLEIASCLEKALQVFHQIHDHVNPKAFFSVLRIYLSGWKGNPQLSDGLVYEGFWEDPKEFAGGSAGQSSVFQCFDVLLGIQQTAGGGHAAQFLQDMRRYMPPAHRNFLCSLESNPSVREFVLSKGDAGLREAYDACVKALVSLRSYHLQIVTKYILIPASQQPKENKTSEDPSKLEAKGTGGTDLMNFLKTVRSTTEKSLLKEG

| IC50 [nM] | Compound |
| --- | --- |
| < 200 | O=C(Nc1ccc(Cl)cc1)N[C@H]1[C@@H]2C[C@@H](Oc3ccnc4ccc(F)cc34)C[C@@H]21 [Compound 10, 1-(4-chlorophenyl)-3-((1R,3s,5S,6r)-3-((6-fluoroquinolin-4-yl)oxy)bicyclo[3.1.0]hexan-6-yl)urea] |
| < 200 | CC[C@@H](NC(=O)c1ccc(C#N)cc1)[C@H]1[C@@H]2CC(N=[N+]=[N-])C[C@@H]21 (stereo partly drawn) [Compound 283, N-((1R)-1-((1R,5S,6r)-3-azidobicyclo[3.1.0]hexan-6-yl)propyl)-4-cyanobenzamide] |
| 200 to 2000 | Cc1cccc(C(=O)NC[C@@H]2[C@H]3C[C@H](n4cnc5cc(F)c(F)cc54)C[C@@H]23)c1 [Compound 323, N-(((1R,3s,5S,6r)-3-(5,6-difluoro-1H-benzo[d]imidazol-1-yl)bicyclo[3.1.0]hexan-6-yl)methyl)-3-methylbenzamide] |
| < 200 | Cc1cccnc1O[C@@H]1C[C@@H]2[C@H](C1)[C@H]2C(C)NC(=O)c1ccc(Cl)cc1 (stereo partly drawn) [Compound 71, 4-chloro-N-(1-((1R,3s,5S,6r)-3-((3-methylpyridin-2-yl)oxy)bicyclo[3.1.0]hexan-6-yl)ethyl)benzamide] |
| 200 to 2000 | CCC(NC(=O)c1ccc(Cl)cc1)[C@H]1[C@@H]2C[C@@H](n3nncc3CO)C[C@@H]21 (stereo partly drawn) [Compound 155, 4-chloro-N-(1-((1R,3s,5S,6r)-3-(5-(hydroxymethyl)-1H-1,2,3-triazol-1-yl)bicyclo[3.1.0]hexan-6-yl)propyl)benzamide] |
| < 200 | CC[C@@H](NC(=O)c1ccc(Cl)cc1)[C@H]1[C@@H]2C[C@@H](NC(=O)c3ccccn3)C[C@@H]21 [Compound 333, N-((1R,3S,5S,6r)-6-((R)-1-(4-chlorobenzamido)propyl)bicyclo[3.1.0]hexan-3-yl)picolinamide] |
| > 5000 | O=C(Cc1ccc(Cl)cc1)NC1C2CN(c3ccnc4ccc(F)cc34)CC21 (centres unmarked) [Compound 109, 2-(4-Chlorophenyl)-N-(3-(6-fluoroquinolin-4-yl)-3-azabicyclo[3.1.0]hexan-6-yl)acetamide] |
| 200 to 2000 | CC(NC(=O)c1ccc(C#N)cc1)[C@H]1[C@@H]2C[C@@H](Oc3cnnc4ccccc34)C[C@@H]21 (stereo partly drawn) [Compound 135, N-(1-((1R,3s,5S,6r)-3-(cinnolin-4-yloxy)bicyclo[3.1.0]hexan-6-yl)ethyl)-4-cyanobenzamide] |
| < 200 | CCC(NC(=O)c1ccc(Cl)cc1)[C@H]1[C@@H]2C[C@@H](NC(=O)c3cnccn3)C[C@@H]21 (stereo partly drawn) [Compound 152, N-((1R,3s,5S,6r)-6-(1-(4-chlorobenzamido)propyl)bicyclo[3.1.0]hexan-3-yl)pyrazine-2-carboxamide] |
| < 200 | CCC(NC(=O)c1ccc(Cl)cc1)[C@H]1[C@@H]2C[C@@H](n3cnc4cc(Cl)ccc4c3=O)C[C@@H]21 (stereo partly drawn) [Compound 53, 4-chloro-N-(1-((1R,3s,5S,6r)-3-(7-chloro-4-oxoquinazolin-3(4H)-yl)bicyclo[3.1.0]hexan-6-yl)propyl)benzamide] |
| 200 to 2000 | CC[C@@H](NC(=O)c1ccnc(C)c1)[C@H]1[C@@H]2C[C@@H](n3cnc4cc(F)c(F)cc43)C[C@@H]21 [Compound 308, N-((R)-1-((1R,3S,5S,6r)-3-(5,6-difluoro-1H-benzo[d]imidazol-1-yl)bicyclo[3.1.0]hexan-6-yl)propyl)-2-methylisonicotinamide] |
| 200 to 2000 | CC[C@@H](NC(=O)N1CC(F)(F)C1)[C@H]1[C@@H]2C[C@@H](n3cnc4cc(F)c(F)cc43)C[C@@H]21 [Compound 354, N-((R)-1-((1R,3S,5S,6r)-3-(5,6-difluoro-1H-benzo[d]imidazol-1-yl)bicyclo[3.1.0]hexan-6-yl)propyl)-3,3-difluoroazetidine-1-carboxamide] |
| < 200 | CCC(NC(=O)c1ccc2c(c1)OC(F)(F)O2)C1C2CC(Oc3ncnc4ccc(F)cc34)CC21 [Compound 69, 2,2-difluoro-N-(1-((1R,3s,5S,6r)-3-((6-fluoroquinazolin-4-yl)oxy)bicyclo[3.1.0]hexan-6-yl)propyl)benzo[d][1,3]dioxole-5-carboxamide] |
| > 5000 | CCC(NC(=O)c1ccc(Cl)cc1)[C@H]1[C@@H]2C[C@@H](n3cc(C(N)=O)nn3)C[C@@H]21 (stereo partly drawn) [Compound 95, 1-((1R,3s,5S,6r)-6-(1-(4-chlorobenzamido)propyl)bicyclo[3.1.0]hexan-3-yl)-1H-1,2,3-triazole-4-carboxamide] |
| 200 to 2000 | O=C(NC[C@@H]1[C@H]2CN(c3ncnc4ccc(F)cc34)C[C@@H]12)c1ccc(Cl)cc1 [Compound 280, 4-chloro-N-(((1R,5S,6s)-3-(6-fluoroquinazolin-4-yl)-3-azabicyclo[3.1.0]hexan-6-yl)methyl)benzamide] |
| < 200 | CC(NC(=O)c1ccc(C#N)cc1)[C@H]1[C@@H]2C[C@@H](n3cnc4cc(F)ccc4c3=O)C[C@@H]21 (stereo partly drawn) [Compound 120, 4-cyano-N-(1-((1R,3s,5S,6r)-3-(7-fluoro-4-oxoquinazolin-3(4H)-yl)bicyclo[3.1.0]hexan-6-yl)ethyl)benzamide] |

| IC50 [nM] | Compound |
| --- | --- |
| < 200 | CC(NC(=O)c1ccc(Cl)cc1)[C@H]1[C@@H]2C[C@@H](Oc3ncnc4ccc(F)cc34)C[C@@H]21 (stereo partly drawn) [Compound 64, 4-chloro-N-(1-((1R,3s,5S,6r)-3-((6-fluoroquinazolin-4-yl)oxy)bicyclo[3.1.0]hexan-6-yl)ethyl)benzamide] |
| < 200 | CC(NC(=O)c1ccc(Cl)cc1)[C@H]1[C@@H]2C[C@@H](Oc3ncnc4cc(F)ccc34)C[C@@H]21 (stereo partly drawn) [Compound 70, 4-chloro-N-(1-((1R,3s,5S,6r)-3-((7-fluoroquinazolin-4-yl)oxy)bicyclo[3.1.0]hexan-6-yl)ethyl)benzamide] |
| < 200 | CCC(NC(=O)c1ccc(Cl)cc1)[C@H]1[C@@H]2C[C@@H](Oc3cncc(F)c3)C[C@@H]21 (stereo partly drawn) [Compound 58, 4-chloro-N-(1-((1R,3s,5S,6r)-3-((5-fluoropyridin-3-yl)oxy)bicyclo[3.1.0]hexan-6-yl)propyl)benzamide] |
| < 200 | CC(C(=O)Nc1ccc(Cl)cc1)[C@H]1[C@@H]2C[C@@H](n3cnc4cc(F)c(F)cc43)C[C@@H]21 (stereo partly drawn) [Compound 281, N-(4-chlorophenyl)-2-((1R,3s, 5S, 6r)-3-(5,6-difluoro-1H-benzo[d]imidazol-1-yl)bicyclo[3.1.0]hexan-6-yl)propanamide] |
| < 200 | CC[C@@H](NC(=O)c1ccc(Cl)cc1)[C@H]1[C@@H]2C[C@@H](NC(=O)c3cccnc3)C[C@@H]21 [Compound 335, N-((1R,3S,5S,6r)-6-((R)-1-(4-chlorobenzamido)propyl)bicyclo[3.1.0]hexan-3-yl)nicotinamide] |
| 2000 to 5000 | CCC(NC(=O)c1ccc(Cl)cc1)[C@H]1[C@@H]2C[C@@H](N3CCOCC3)C[C@@H]21 (stereo partly drawn) [Compound 73, 4-chloro-N-(1-((1R,3s,5S,6r)-3-morpholinobicyclo[3.1.0]hexan-6-yl)propyl)benzamide] |
| 200 to 2000 | CCC(NC(=O)c1ccc(Cl)cc1)[C@H]1[C@@H]2C[C@@H](n3cncn3)C[C@@H]21 (stereo partly drawn) [Compound 81, N-(1-((1R,3s,5S,6r)-3-(1H-1,2,4-triazol-1-yl)bicyclo[3.1.0]hexan-6-yl)propyl)-4-chlorobenzamide] |
| < 200 | CCC(NC(=O)c1ccc(Cl)cc1)[C@H]1[C@@H]2C[C@@H](Nc3c(F)cc(F)cc3[N+](=O)[O-])C[C@@H]21 (stereo partly drawn) [Compound 264, 4-chloro-N-(1-((1R,3s,5S,6r)-3-((2,4-difluoro-6-nitrophenyl)amino)bicyclo[3.1.0]hexan-6-yl)propyl)benzamide] |
| < 200 | CCC(NC(=O)c1ccc(Cl)cc1)C1C2CC(Oc3cc(C(F)(F)F)nc4ccc(F)cc34)CC21 [Compound 22, 4-chloro-N-(1-((1R,3s,5S,6r)-3-((6-fluoro-2-(trifluoromethyl)quinolin-4-yl)oxy)bicyclo[3.1.0]hexan-6-yl)propyl)benzamide] |
| < 200 | CC[C@@H](NC(=O)c1ccc(Cl)cc1)[C@H]1[C@@H]2C[C@@H](n3cc(I)cn3)C[C@@H]21 [Compound 304, 4-chloro-N-((R)-1-((1R,3S,5S,6r)-3-(4-iodo-1H-pyrazol-1-yl)bicyclo[3.1.0]hexan-6-yl)propyl)benzamide] |
| < 200 | CC[C@@H](NC(=O)c1ccc(Cl)cc1)[C@H]1[C@@H]2C[C@@H](n3cc(C4CC4)cn3)C[C@@H]21 [Compound 348, 4-chloro-N-((R)-1-((1R,3S,5S,6r)-3-(4-cyclopropyl-1H-pyrazol-1-yl)bicyclo[3.1.0]hexan-6-yl)propyl)benzamide] |
| < 200 | C[C@H](C(=O)Nc1ccc(Cl)cc1)[C@H]1[C@@H]2C[C@@H](n3cnc4cc(F)c(F)cc43)C[C@@H]21 [Compound 299, (S)-N-(4-chlorophenyl)-2-((1R,3R,5S,6r)-3-(5,6-difluoro-1H-benzo[d]imidazol-1-yl)bicyclo[3.1.0]hexan-6-yl)propanamide] |
| 200 to 2000 | O=C(NC(CCO)[C@H]1[C@@H]2C[C@@H](Oc3cnnc4ccccc34)C[C@@H]21)c1ccc(Cl)cc1 (stereo partly drawn) [Compound 139, 4-chloro-N-(1-((1R,3s,5S,6r)-3-(cinnolin-4-yloxy)bicyclo[3.1.0]hexan-6-yl)-3-hydroxypropyl)benzamide] |
| < 200 | C[C@@H](C(=O)Nc1ccc(Cl)cc1)[C@H]1[C@@H]2C[C@@H](n3cnc4cc(F)c(F)cc43)C[C@@H]21 [Compound 298, (R)-N-(4-chlorophenyl)-2-((1R,3S,5S,6r)-3-(5,6-difluoro-1H-benzo[d]imidazol-1-yl)bicyclo[3.1.0]hexan-6-yl)propanamide] |
| < 200 | CCC(NC(=O)c1ccc(Cl)cc1)[C@H]1[C@@H]2C[C@@H](Oc3cc(C)nc4ccc(F)cc34)C[C@@H]21 (stereo partly drawn) [Compound 20, 4-chloro-N-(1-((1R,3s,5S,6r)-3-((6-fluoro-2-methylquinolin-4-yl)oxy)bicyclo[3.1.0]hexan-6-yl)propyl)benzamide] |

| Compound | IC50 [nM] |
| --- | --- |
| CCC(NC(=O)c1ccc(Cl)cc1)C1[C@H]2CC(Oc3cnnc4ccccc34)C[C@@H]12 (stereo partly drawn) [Compound 46, 4-chloro-N-(1-((1R,3s,5S,6r)-3-(cinnolin-4-yloxy)bicyclo[3.1.0]hexan-6-yl)propyl)benzamide] | < 200 |
